Reference: paper PMC9266368, “Synthesis and Biological Evaluation of Small Molecules as Potential Anticancer Multitarget Agents” (International Journal of Molecular Sciences, 2022)

Experiments:
[1] = tested on: VEGFR-2 kinase activity; test: ADP assay of kinase activity in HT-29 cells; type: cell-based, human; details: 100 μM, 24 h; DMSO as negative control
Procedure: Finally, to assess the VEGFR-2 inhibitory activity of the selected compounds, namely 21, 22, and 23, we performed an ADP assay. This is a very useful technique that measures kinase activity by monitoring ADP accumulation in cell cultures instead of ATP concentrations.
For the assay, we used HT-29 cells that were previously treated with a 100 μM concentration of 21, 22, and 23, and we used DMSO as a negative control.
The kinase inhibitory activity of the selected compounds was studied as follows: first 10^5 HT-29 cells were seeded on a 12 well-plate, and then they were treated with 100 μM of the selected compounds for 24 h. Afterward, cells were collected, and the kinase activity was determined from collected pellets by following the manufacturer’s instructions indicated in the ADP Colorimetric Assay Kit II (Abcam S.A. reference ab282932).

[2] = tested on: HT-29 (colon adenocarcinoma); test: MTT cell viability assay, HT-29; type: cell-based; details: Homo sapiens, HT-29, 48 h, 2 days incubation, average ±SD of three experiments
Procedure: (§1) The effects of triazole derivatives 1–26 on the cell viability were determined by MTT assay, and the IC50 values were determined toward the human tumor cell lines HT-29 (colon adenocarcinoma), A-549 (lung adenocarcinoma), and MCF-7 (breast adenocarcinoma), as well as toward the non-tumor cell line HEK-293 (human embryonic kidney cells).
(§2) In 96-well plates, 3 × 10^3 (A549 and HEK-293) or 5 × 10^3 (HT-29, MCF-7) cells per well were incubated with serial dilutions of the tested compounds in a total volume of 100 μL of their growth media. The 3-(4,5-dimethylthiazol-2-yl)-2,5-diphenyltetrazolium bromide (MTT; Sigma Chemical Co.) dye reduction assay in 96-well microplates was used. After 2 days of incubation (37 °C, 5% CO2 in a humid atmosphere), 10 μL of MTT (5 mg/mL in phosphate-buffered saline, PBS) was added to each well, and the plate was incubated for a further 3 h (37 °C). After that, the supernatant was discarded and replaced by 100 µL of DMSO to dissolve formazan crystals. The absorbance was then read at 550 nm by spectro-photometry. For all concentrations of compound, cell viability was expressed as the percentage of the ratio between the mean absorbance of treated cells and the mean absorbance of untreated cells. Three independent experiments were performed, and the IC50 values (i.e., concentration half inhibiting cell proliferation) were graphically determined by using GraphPad Prism 4 software (2019).

[3] = tested on: HEK-293 (human embryonic kidney cells); test: MTT cell viability assay, HEK-293; type: cell-based; details: HEK293, 48 h, 2 days incubation, non-tumor cell line, average ±SD of three experiments
Procedure: as §1, §2

[4] = tested on: HMEC-1 cells; test: Tube disruption on Matrigel (antivascular activity); type: cell-based; details: 100 μM added to 24 h networks, observed after another 24 h
Procedure: The antivascular and antiangiogenic activities of the selected compounds, namely 21, 22, and 23, were settled by 3D Matrigel cell cultures. First, we studied the effect on a microvessel network from HMEC-1 cells. HMEC-1 cells were on Matrigel, and after 24 h, when organized capillary networks were formed, 100 μM of the corresponding compounds, 21–23, was added. After another 24 h, we compared the treated networks with the one that received no treatment (see Figure 5a–c).
Wells of a IBIDI 15-well μ-plate for angiogenesis were coated with 15 μL of Matrigel® (10 mg/mL, BD Biosciences Europe) at 4 °C. After gelatinization at 37 °C for 30 min, HMEC-1 cells were seeded at 2 × 10^4 cells/well in 25 μL of culture medium on top of the Matrigel and were incubated for 30 min at 37 °C while they were attached.
For the tube disruption assay (study of antivascular activity), after 24 h, we checked that the capillary networks were formed on wells, and then 100 μM of compounds was added. After 24 h of treatment, the cultures were observed again, and pictures of each well were taken.

[5] = tested on: MCF-7 (breast adenocarcinoma); test: MTT cell viability assay, MCF-7; type: cell-based; details: Homo sapiens, MCF7, 48 h, 2 days incubation, average ±SD of three experiments
Procedure: as §1, §2

[6] = target: T1, membrane PD-L1 (mPD-L1) (Homo sapiens, UniProt Q9NZQ7); test: Membrane PD-L1 relative quantification by flow cytometry; type: cell-based; details: for mPD-L1 relative detection, A-549 / mPD-L1 relative detection, HT-29 / mPD-L1 relative detection, MCF-7: 24 h, 100 or 10 μM (Table 7), percentage referred to DMSO control
T1 construct: endogenous in cells; host or cells: HT-29, A-549, MCF-7
Procedure: Based on antiproliferative activity of synthetized derivatives, we decided to study the effect of the amino derivatives 14–26 on the expression of both membrane targets PD-L1 and VEGFR-2 (mPD-L1 and mVEGFR-2). The evaluation was performed on three cancer cell lines (HT-29, A-549, and MCF-7) by flow cytometry after 24 h of treatment with the corresponding compounds. Compounds were used at a 100 or 10 μM concentration depending on their IC50 value (see Table 1 in Materials and Methods section). The presence of both targets in the membrane was relatively determined by using DMSO-treated cells as a negative control.
To study the effect of the compounds on every biological target in cancer cell lines the compounds were used at a 100 or 10 μM dose, depending on their IC50 and the treated cell line.
For the assay, 10^5 cells per well were incubated for 24 h with the corresponding dose of the tested compound in a total volume of 500 μL of their growth media.
To detect membrane PD-L1 and VEGFR-2, after the cell treatments, they were collected, fixed with 4% in PBS paraformaldehyde, and stained with FITC Mouse monoclonal Anti-Human VEGFR-2 (ab184903) and Alexa Fluor® 647 Rabbit monoclonal Anti-PD-L1 (ab215251).

[7] = target: T2, PD-L1 (Homo sapiens, UniProt Q9NZQ7); test: Protein thermal shift (PTS) assay; type: binding; details: for PTS Tm: PD-L1 melting temperature, DMSO 34 °C; for PTS ΔTm: shift of PD-L1 melting temperature vs DMSO
T2 construct: purchased ab167713
Text: This assay measures the melting point (Tm) of the target protein which is a proxy of its stability that can be altered by the binding of a ligand. A change in the melting point relative to the unliganded form implies that a ligand has bound itself to the targeted protein. According to the fundamentals of this technique, an increase in Tm means that the binding of the ligand leads to a stabilization of the target protein, while a decrease in Tm is probably due to the fact that the binding between the ligand and its target leads to a destabilization of the protein. In this case, the tested compounds were able to change the PD-L1 melting temperature.
PTS assay was performed by following the instructions indicated in Protein Thermal ShiftTM Dye Kit (Applied Biosystems reference 4461146), using 2 μL of a 0.1 mg/mL of an aqueous solution of PD-L1 (reference ab167713) and 1.5 μL of a 0.1 mg/mL aqueous solution of the corresponding product. The melting curves were registered by a StepOneTM Real-Time PCR System.

T2 sequence (Q9NZQ7 19-290): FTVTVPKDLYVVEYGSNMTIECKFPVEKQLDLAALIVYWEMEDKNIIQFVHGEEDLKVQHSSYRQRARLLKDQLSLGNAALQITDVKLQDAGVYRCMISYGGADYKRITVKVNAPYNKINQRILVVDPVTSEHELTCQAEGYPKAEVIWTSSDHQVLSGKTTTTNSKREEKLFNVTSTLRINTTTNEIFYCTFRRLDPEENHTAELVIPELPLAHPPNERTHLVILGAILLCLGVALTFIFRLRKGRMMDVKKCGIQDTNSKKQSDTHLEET
T1 sequence (Q9NZQ7 19-290): as above

**Q.** `Nc1ccc(-c2cn(Cc3ccc(Cl)cc3)nn2)cc1` [Compound 23, 4-(1-(4-chlorobenzyl)-1H-1,2,3-triazol-4-yl)aniline] was tested. Which “Kinase activity measured in HT-29 cell cultures” value [1] did it give?
**A.** 31 ± 8%

**Q.** What about the IC50 [2] of the same compound?
**A.** > 100 µM

**Q.** And the IC50 [3]?
**A.** > 100 µM

**Q.** What about the “Antivascular effect on formed HMEC-1 capillary networks” value [4] of the same compound?
**A.** disturbance of the formed microvasculature-like network

**Q.** What about the IC50 [5] of the same compound?
**A.** 9 ± 6 µM

**Q.** And the “mPD-L1 relative detection, A-549” value [6]?
**A.** >100%

**Q.** And the “mPD-L1 relative detection, HT-29” value ([6]; HT-29)?
**A.** 38 ± 5%

**Q.** What about the “Reduction/inhibition of membrane PD-L1, HT-29” value ([6]; HT-29, compared to non-treated cells) of the same compound?
**A.** around 70%

**Q.** What about the “mPD-L1 relative detection, MCF-7” value [6] of the same compound?
**A.** 86 ± 3%

**Q.** And the “PTS Tm” value [7]?
**A.** 29 °C

**Q.** And the “PTS ΔTm” value [7]?
**A.** −5 °C

**Q.** `Nc1ccc(-c2cn(Cc3ccccc3Cl)nn2)cc1` [Compound 21, 4-(1-(2-chlorobenzyl)-1H-1,2,3-triazol-4-yl)aniline] was tested. Which “Kinase activity measured in HT-29 cell cultures” value [1] did it give?
**A.** 46 ± 10%

**Q.** What about the IC50 [2] of the same compound?
**A.** > 100 µM

**Q.** What about the IC50 [3] of the same compound?
**A.** > 100 µM

**Q.** What about the “Antivascular effect on formed HMEC-1 capillary networks” value [4] of the same compound?
**A.** disturbance of the formed microvasculature-like network

**Q.** And the IC50 [5]?
**A.** 11 ± 2 µM

**Q.** What about the “mPD-L1 relative detection, A-549” value [6] of the same compound?
**A.** 95 ± 5%

**Q.** And the “mPD-L1 relative detection, MCF-7” value [6]?
**A.** 83 ± 7%

**Q.** What about the “PTS Tm” value [7] of the same compound?
**A.** 30 °C

**Q.** What about the “PTS ΔTm” value [7] of the same compound?
**A.** −4 °C

**Q.** What does the source list for `Nc1ccc(-c2cn(Cc3cccc(Cl)c3)nn2)cc1` [Compound 22, 4-(1-(3-chlorobenzyl)-1H-1,2,3-triazol-4-yl)aniline]?
**A.** Kinase activity measured in HT-29 cell cultures [1]: 33 ± 4%; IC50 [2]: > 100 µM; IC50 [3]: > 100 µM; Antivascular effect on formed HMEC-1 capillary networks [4]: disturbance of the formed microvasculature-like network; IC50 [5]: 8 ± 2 µM; mPD-L1 relative detection, A-549 [6]: 82 ± 18%; mPD-L1 relative detection, HT-29 ([6]; HT-29): 27 ± 5%; mPD-L1 relative detection, MCF-7 [6]: 90 ± 2%; PTS Tm [7]: 26 °C; PTS ΔTm [7]: −8 °C
